One series deals with human A549 cells. The format is cell-based.
The subject of series [1] is A549 cells. Put plainly: Amiodarone-induced net cell loss in A549 cultures. The format is cell-based, human. The note with it: 20 hours exposure.
Description: (§5) Primary alveolar epithelial cells were isolated from adult male Wistar rats. The primary cells were studied at day two of culture, a time at which they are type II cell-like by accepted morphologic and biochemical criteria. All primary cell preparations were of better than 90% purity assessed by acridine orange staining. All cells were seeded in 24-well or 6-well chambers, and all experiments were conducted at subconfluent densities of 80-90% in serum-free Ham's F12 medium. Test reagents were diluted with Ham's F12 medium and were applied for 20 hours at 37C. in a 5% CO2 incubator.
(§6) Importantly, unattached cells were recovered and included in the analyses, and thus the data represent true loss of cells rather than simple detachment from the substratum.
The subject of series [2] is primary cultures of rat AEC. The format is cell-based. The note with it: 20 h.
Description: (§7) The human lung adenocarcinoma cell line A549 (ATCC) was cultured in Ham's F12 medium supplemented with 10% fetal bovine serum (FBS). Primary alveolar epithelial cells were isolated from adult male Wistar rats. The primary cells were studied at day two of culture, a time at which they are type II cell-like by accepted morphologic and biochemical criteria. All primary cell preparations were of better than 90% purity assessed by acridine orange staining. All cells were seeded in 24-well or 6-well chambers, and all experiments were conducted at subconfluent densities of 80-90% in serum-free Ham's F12 medium. Test reagents were diluted with Ham's F12 medium and were applied for 20 hours at 37C. in a 5% CO2 incubator.
The subject of series [3] is A549 cells. The procedure:
(§1) The human lung adenocarcinoma cell line A549 (ATCC) was cultured in Ham's F12 medium supplemented with 10% fetal bovine serum (FBS). Primary alveolar epithelial cells were isolated from adult male Wistar rats. The primary cells were studied at day two of culture, a time at which they are type II cell-like by accepted morphologic and biochemical criteria. […] All cells were seeded in 24-well or 6-well chambers, and all experiments were conducted at subconfluent densities of 80-90% in serum-free Ham's F12 medium. Test reagents were diluted with Ham's F12 medium and were applied for 20 hours at 37C. in a 5% CO2 incubator.
(§2) Apoptotic cells were detected using propidium iodide (PI) following digestion of ethanol-fixed cells with DNAse-free RNAse in PBS containing 5 ug/ml PI. […] In replicate culture vessels, necrosis was detected as the loss of exclusion of PI after application of the vital dye directly to the cell culture medium at 5 ug/ml final concentration. Red fluorescent (PI-POSITIVE) cells (>570 nm) were scored over the subsequent hour as a percentage of the total cells in any given field. A minimum of 4 separate fields were scored in each of three separate culture vessels per experiment condition; all experiments were performed at least twice and the data were compiled. Although all necrotic cells are PI-positive, some apoptotic cells may also take up the dye but these comprise a minor fraction of the total dead cell population.
(§3) In all assays, detached cells were retained by centrifugation of the culture vessel at 300×g for 10 minutes with a centrifuge rotor designed for culture plates. For detection of necrosis (dye exclusion of PI), the PI was added directly to the cell culture medium immediately before centrifugation of the culture vessel. For detection of apoptosis, ethanol was added directly to the cell culture medium to a final concentration of 70% immediately before the centrifugation. Afterward, the ethanol was carefully removed and the total cell population (attached plus sedimented detached cells) were stained with PI as described above.

The test system of series [4] is primary rat AEC. The protocol:
as §1, §2, §3

For series [5], the system named is primary rat AEC. The series can be described thus: Amiodarone-induced net cell loss in primary rat AEC cultures. The format is cell-based. As to conditions: 20 hours exposure.
Description: as §5, §6
A further series concerns primary rat AECs. The series can be described thus: TNF-α-induced apoptosis of primary rat AECs. The format is cell-based. As to conditions: purified TNF-α.
Series [6] has as its system primary rat AEC. The series can be described thus: Angiotensin II-induced apoptosis in primary rat AEC (nuclear fragmentation, PI). The format is cell-based. As to conditions: ANGII 5.0 uM; saralasin 50 ug/ml, lisinopril 500 ng/ml. An excerpt:
Cell Culture. The human lung adenocarcinoma cell line A549 was obtained from American Type Culture Collection and cultured in Ham's F12 medium supplemented with 10% fetal bovine serum (FBS). Primary alveolar epithelial cells were isolated from adult male Wistar rats as described in Uhal et al., Am. J. Physiol. Suppl. (Oct.) 261:110-117 (1991) and Uhal et al., Am. J. Physiol. 269:L819-L828 (1995). The primary cells were studied at day two of culture, a time at which they are type II cell-like by accepted morphologic and biochemical criteria, see Uhal, Am. J. Physiol. 272:L1031-L1045 (1997). […] J. Physiol. Suppl. (October) 261:110-117 (1991). All cells were seeded in 24-well or 6-well chambers, and all experiments were conducted at subconfluent densities of 80-90% in serum-free Ham's F12 medium. Test reagents were diluted with Ham's F12 medium and were applied for 20 h at 37° C. in a 5% CO2 incubator.
Detection of Apoptosis. Detection of apoptotic cells with propidium iodide (PI) was conducted as described in Uhal, et al., Am. J. Physiol. 275:L1013-1017 (1998) following digestion of ethanol-fixed cells with DNAse-free RNAse in PBS containing 5 ug/ml PI. Assay of Annexin V binding by flow cytometry was performed essentially as described for human lung fibroblasts in Uhal, et al., Am. J. Physiol. 275:L998-L1005 (1998) after trypsinization of cells from culture vessels. Assay of Caspase-3 activity was performed on viable suspension cultures as reported in Uhal, et al., Am. J. Physiol. 275:L1013-1017 (1998). In all assays, detached cells were retained by centrifugation of the culture vessels during fixation with 70% ethanol, or by retention of culture media and recovery by centrifugation before assay.
(§4) For microscopy, cells were cultured on glass cover slips, incubated with test reagents and fixed with 70% ethanol. The fixed cells were immunolabeled overnight at 4° C. with monoclonal antibodies to cytokeratins 7 and 19 (Chemicon International, Temecula, Calif.), and then for one hour at 37° C. with anti-mouse IgG-rhodamine and DNAse-free RNAse (Boehringer Mannheim, Indianapolis, Ind.) The cover slips were then rinsed in distilled water three times and mounted under Fluoromount Solution (Southern Biotechnology Associates, Birmingham, Ala.) containing 5 ug/ml propidium iodide. Photomicroscopy was performed as described in Uhal, et al., Am. J. Physiol. 275:L1013-1017 (1998).
Apoptosis in alveolar epithelial cells was quantitated by fluorescence detection of chromatin condensation and nuclear fragmentation in alcohol-fixed cells stained with propidium iodide. See Uhal, et al., Am. J. Physiol. 275:L1013-1017 (1998). […] After 20 h, the culture vessel was centrifuged to retain detached cells and labeled with anticytokeratin antibodies and propidium iodide. […] Double labeling with PI and monoclonal antibodies to cytokeratins 7 and 19 identified cells with both apoptotic nuclear morphology and positive anticytokeratin immunoreactivity.

Series [7] concerns primary rat AEC. The series can be described thus: Fas ligand-induced apoptosis of primary rat alveolar epithelial cells. Format: cell-based. As to conditions: captopril, lisinopril 500 ng/ml; caspase inhibitors 60 uM. The protocol:
Lung Cell Isolation and Detection of Apoptosis In Vitro. Primary alveolar epithelial cells (AEC) were isolated from adult male Wistar rats as described above. The primary cells were studied at day two of culture, a time at which they are type II cell-like by accepted morphologic and biochemical criteria, see Paine et al., Am. J. Physiol. […] All cells were seeded in 24-well or 6-well chambers, and all experiments were conducted at subconfluent densities of 80-90% in serum-free Ham's F12 medium. Test reagents were diluted with Ham's F12 medium and were applied for 20 hours at 37° C. in a 5% CO2 incubator.
Detection of apoptotic cells with propidium iodide (PI) was conducted as described above, following digestion of ethanol-fixed cells with DNAse-free RNAse in PBS containing 5 ug/ml PI.
Expression of FAS by alveolar epithelial cells is observed during bleomycin-induced fibrogenesis in mice. See Hagimoto, et al., Am. J. Respir. Cell Mol. Biol. 16:91-101 (1997). […] Apoptosis was detected by quantitation of fragmented nuclei (see above).
Cell Culture and Detection of Apoptosis. The human lung adenocarcinoma cell line A549 was obtained from American Type Culture Collection and cultured in Ham's F12 medium supplemented with 10% fetal bovine serum (FBS). Primary alveolar epithelial cells were isolated from adult male Wistar rats as described earlier (Uhal, B. D., I. Joshi, A. True, S. Mundle, A. Raza, A. Pardo and M. Selman. Fibroblasts isolated after fibrotic lung injury induce apoptosis of alveolar epithelial cells in vitro. Am. J. Physiol. 269:L819-L828, 1995); Wang, R., A. Zagariya, 0. Ibarra-Sunga, C. […] Am. J. Physiol. 276:L885-L889 (1999)). […] All cells were seeded in 24-well or 6-well chambers, and all experiments were conducted at subconfluent densities of 80-90% in serum-free Ham's F12 medium. Test reagents were diluted with serum-free Ham's F12 medium and were applied under serum-free conditions for 20 hours at 37C. in a 5% CO2 incubator. Detection of apoptotic cells with propidium iodide (PI) was conducted as described above Am. J. Physiol. 275:L1013-1017 (1998); Uhal et al., following digestion of ethanol-fixed cells with DNAse-free RNAse in PBS containing 5 μg/ml PI. In all assays, detached cells were retained by centrifugation of the culture vessels during fixation with 70% ethanol, or by retention of culture media and recovery by centrifugation before assay.
Apoptosis was detected by nuclear fragmentation as described above.

The conditions of series [8]: AIPT; cited from earlier work.
A further series has as its system A549 cell line. The series can be described thus: Angiotensinogen-induced apoptosis in A549 cells. The format is cell-based, human. The procedure: Cell Culture. […] J. Physiol. Suppl. (Oct.) 261:110-117 (1991) and Uhal et al., Am. J. Physiol. 269:L819-L828 (1995). […] J. Physiol. 272:L1031-L1045 (1997). […] J. Physiol. Suppl. (October) 261:110-117 (1991).
Detection of Apoptosis. […] J. Physiol. […] Assay of Annexin V binding by flow cytometry was performed essentially as described for human lung fibroblasts in Uhal, et al., Am. J. Physiol. 275:L998-L1005 (1998) after trypsinization of cells from culture vessels. Assay of Caspase-3 activity was performed on viable suspension cultures as reported in Uhal, et al., Am. J. Physiol. 275:L1013-1017 (1998).
as §4

For series [9], the system named is primary rat AEC. The series can be described thus: Angiotensinogen-induced apoptosis in primary rat AEC. Format: cell-based. As to conditions: 5 uM. The protocol: Cell Culture. […] J. Physiol. Suppl. […] J. Physiol. […] J. Physiol. […] J. Physiol. Suppl.
Detection of Apoptosis. […] J. Physiol. […] Assay of Annexin V binding by flow cytometry was performed essentially as described for human lung fibroblasts in Uhal, et al., Am. J. Physiol. […] Assay of Caspase-3 activity was performed on viable suspension cultures as reported in Uhal, et al., Am. J. Physiol.
as §4, with “Physiol.” for “Physiol. 275:L1013-1017 (1998).”

Where two headings read alike, the source gives them in different places.

Description for human A549 cells: as §7
Apoptotic cells were detected using propidium iodide (PI) following digestion of ethanol-fixed cells with DNAse-free RNAse in PBS containing 5 ug/ml PI. […] In replicate culture vessels, necrosis was detected as the loss of exclusion of PI after application of the vital dye directly to the cell culture medium at 5 ug/ml final concentration. Red fluorescent (PI-POSITIVE) cells (>570 nm) were scored over the subsequent hour as a percentage of the total cells in any given field. A minimum of 4 separate fields were scored in each of three separate culture vessels per experiment condition; all experiments were performed at least twice and the data were compiled. […]

Regarding `CCCCc1oc2ccccc2c1C(=O)c1cc(I)c(OCCNCC)c(I)c1` [desethylamiodarone], the “concentration at which necrosis / significant cell death begins” value with human A549 cells (human, 20 h) came out at 5000 ng/mL. The “effect on total cell number” value with A549 cells [1] and with primary rat AEC [5] was “significantly decreased” in each case. In [2] (male, Wistar, rat), the “concentration at which significant cell death / toxicity begins” value amounted to 100 ng/mL. For the same molecule, in series [2] (male, Wistar, rat), the “cytotoxicity at the higher doses” value was around 100%. Besides, in the series on A549 cells [3] (human, 20 h), the “concentration at which apoptosis begins” value was found to be 5000 ng/mL. Besides, the “concentration at which significant apoptosis begins” value in the series on primary rat AEC [4] (male, Wistar, rat, 20 h) was determined as 2500 ng/mL.

On to `CCCCc1nc(Cl)c(CO)n1Cc1ccc(-c2ccccc2-c2nn[nH]n2)cc1` [Losartan, losartan], for which, in the series on primary rat AECs, the “inhibition of TNF-α-induced apoptosis” value is listed as “abrogated”. In the series on primary rat AEC [6], the “inhibition of ANGII-induced apoptosis of primary rat AEC” value was “abrogated”. Besides, the “inhibition of amiodarone-induced apoptosis” value with A549 cells [3] (captopril 500 ng/ml, saralasin 50 ug/ml, Losartan 5 pg/ml) is on record as “completely blocked”; in the series on primary rat AEC [4] (captopril 500 ng/ml, saralasin 50 ug/ml, Losartan 5 pg/ml, amiodarone 2.5 ug/ml for chelerythrine, orthovanadate) it was “completely blocked”. For the same molecule, the “inhibition of Fas ligand-induced apoptosis of primary rat AEC (words)” value in the series on primary rat AEC [7] is given as “abrogated”.

With `CCCCc1oc2ccccc2c1C(=O)c1cc(I)c(OCCN(CC)CC)c(I)c1` [amiodarone], the “concentration at which necrosis / significant cell death begins” value with human A549 cells (A549, 20 h) was found to be 10000 ng/mL. The “effect on total cell number” value in the series on A549 cells [1] and with primary rat AEC [5] was “significantly decreased” in each case. The “concentration at which significant cell death / toxicity begins” value came to 2500 ng/mL in series [2] (primary rat AEC) and 1000 ng/mL in series [2] (primary rat AEC, listed as AM). Further, the “maximum increase in apoptotic cells” value in the series with A549 cells [3] (10 ug/ml AM, 5 ug/ml DES) is 10 fold. In addition, the “concentration at which apoptosis begins” value in the series with A549 cells [3] (A549) turned out to be 10000 ng/mL. Besides, in the series on primary rat AEC [4] (15 ug/ml AM, 5 ug/ml DES), the induction of apoptosis was 16 fold. In addition, the “concentration at which significant apoptosis begins” value in the series with primary rat AEC [4] (primary AEC) was found to be 2500 ng/mL. Also, the “estimated mortality of affected patients” value in [8] is reported as 5 to 10%.

B1: angiotensinogen: purified angiotensinogen, serum globulin precursor of angiotensin I (protein, UniProt P01019 25-476, looked up)
Angiotensinogen: DRVYIHPFHLVIHNESTCEQLAKANAGKPKDPTFIPAPIQAKTSPVDEKALQDQLVLVAAKLDTEDKLRAAMVGMLANFLGFRIYGMHSELWGVVHGATVLSPTAVFGTLASLYLGALDHTADRLQAILGVPWKDKNCTSRLDAHKVLSALQAVQGLLVAQGRADSQAQLLLSTVVGVFTAPGLHLKQPFVQGLALYTPVVLPRSLDFTELDVAAEKIDRFMQAVTGWKTGCSLMGASVDSTLAFNTYVHFQGKMKGFSLLAEPQEFWVDNSTSVSVPMLSGMGTFQHWSDIQDNFSVTQVPFTESACLLLIQPHYASDLDKVEGLTFQQNSLNWMKKLSPRTIHLTMPQLVLQGSYDLQDLLAQAELPAILHTELNLQKLSNDRIRVGEVLNSIFFELEADEREPTESTQQLNKPEVLEVTLNRPFLFAVYDQSATALHFLGRVANPLSTA
Consider B1, for which the “induction of apoptosis by angiotensinogen” value is recorded as “not capable of inducing apoptosis” in the series on A549 cell line and “induced apoptosis with the same potency as did ANGII” in the series with primary rat AEC [9].
